We go through 27 compounds from patent publication US20230399341A1, “7-PHENYL SUBSTITUTED 2-AMINOQUINAZOLINE INHIBITORS OF HPK1” (MERCK SHARP & DOHME LLC, priority 2020, published 2023).

As usually defined, the IC50 is the concentration that inhibits the measured activity by half. High values mean weaker potency in that assay, low ones greater potency in that assay.

This assay has as its target T1, Human HPK1, catalytic domain (Homo sapiens, UniProt Q92918).
T1 sequence (Q92918 1-346): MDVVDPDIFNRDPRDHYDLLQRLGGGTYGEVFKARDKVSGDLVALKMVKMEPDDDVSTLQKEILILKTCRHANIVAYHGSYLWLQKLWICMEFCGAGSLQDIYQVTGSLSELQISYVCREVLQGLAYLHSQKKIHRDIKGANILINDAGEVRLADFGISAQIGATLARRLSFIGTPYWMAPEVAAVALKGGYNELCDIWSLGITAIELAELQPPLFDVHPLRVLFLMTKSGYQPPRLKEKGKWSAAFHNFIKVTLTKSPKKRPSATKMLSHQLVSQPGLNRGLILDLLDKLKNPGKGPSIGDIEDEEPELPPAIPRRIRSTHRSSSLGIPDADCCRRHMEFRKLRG
Put plainly: HPK1-SLP76 TR-FRET Assay. Format: biochemical. The following applies: 75 pM HPK1, ATP 10 uM, SLP76 10 nM, 30 min pre-incubation, 60 min reaction. (In general: TR-FRET usually uses a lanthanide donor and a delayed reading to cut background.)

As to `COc1cc2c(cc1Nc1ncc3ccc(NC4CCN(C(C)=O)CC4)cc3n1)CN(C)CC2` [Compound 3-38, 1-[4-({2-[(6-methoxy-2-methyl-1,2,3,4-tetrahydroisoquinolin-7-yl)amino]quinazolin-7-yl}-amino)piperidin-1-yl]ethan-1-one], 369 nM corresponded to half-maximal inhibition (IC50).
In the case of `COc1nc(C2(C#N)CC2)ccc1Nc1ncc2c(N)c(F)c(-c3cnc4c(c3C)NCCO4)c(Cl)c2n1` [Compound 2-182, (+ or −)-1-(5-{[5-amino-8-chloro-6-fluoro-7-(8-methyl-2,3-dihydro-1H-pyrido[2,3-b][1,4]oxazin-7-yl)quinazolin-2-yl]amino}-6-methoxypyridin-2-yl)cyclopropane-1-carbonitrile], half-maximal inhibition (IC50) was put at 32.7 nM.
With `COc1cc2c(cc1Nc1ncc3c(N)c(F)c(-c4cncc(N)c4C)cc3n1)CN(C)CC2` [Compound 2-1, 7-(5-amino-4-methylpyridin-3-yl)-6-fluoro-N~2~-(6-methoxy-2-methyl-1,2,3,4-tetrahydroisoquinolin-7-yl)quinazoline-2,5-diamine], 0.249 nM corresponded to half-maximal inhibition (IC50). This IC50 lies about 130-fold lower than the previous one.
`COc1cc2c(cc1Nc1ncc3ccc(-c4ccc5c(c4)CCN5)cc3n1)CNCC2` [Compound 1-87, 7-(2,3-dihydro-1H-indol-5-yl)-N-(6-methoxy-1,2,3,4-tetrahydroisoquinolin-7-yl)quinazolin-2-amine]: the IC50 is 49.2 nM. Compared with the last compound, the IC50 is about 200-fold higher.
Turning to `Cc1c(-c2cc3nc(Nc4ccc5c(c4)CC(C)(C)N(C)C5)ncc3c(N)c2F)cnc2c1NCCO2` (single isomer, unassigned) [Compound 2-126, 6-fluoro-7-(8-methyl-2,3-dihydro-1H-pyrido[2,3-b][1,4]oxazin-7-yl)-N2-(2,3,3-trimethyl-1,2,3,4-tetrahydroisoquinolin-6-yl)quinazoline-2,5-diamine], half-maximal inhibition (IC50) required 0.0898 nM.
As for `COc1cc2c(cc1Nc1ncc3ccc(-c4cc(NC(C)=O)ccc4C)cc3n1)CNCC2` [Compound 1-85, N-(3-{2-[(6-methoxy-1,2,3,4-tetrahydroisoquinolin-7-yl)amino]quinazolin-7-yl}-4-methylphenyl)acetamide], the figure is 462 nM.
In the case of `CNC(=O)C1CCc2cc(Nc3ncc4cc(F)c(-c5cnc6c(c5C)NCCO6)cc4n3)ccc21` (single isomer, unassigned) [Compound 1-119, (R or S)-5-{[6-fluoro-7-(8-methyl-2,3-dihydro-1H-pyrido[2,3-b][1,4]oxazin-7-yl)quinazolin-2-yl]amino}-N-methyl-2,3-dihydro-1H-indene-1-carboxamide] it was 1.17 nM.
In turn, `Cc1ccc(F)cc1-c1cc2nc(Nc3ccc(CS(C)(=O)=O)cc3)ncc2c(N)c1F` [Compound 2-172, 6-fluoro-7-(5-fluoro-2-methylphenyl)-N~2~-{4-[(methylsulfonyl)methyl]phenyl}quinazoline-2,5-diamine] displayed an IC50 of 24.6 nM.
In the case of `COc1cc2c(cc1Nc1ncc3c(N)c(F)c(-c4cnc5c(c4C)NCCO5)cc3n1)CN(C(C)C)CC2` [Compound 2-72, 6-fluoro-N~2~-[6-methoxy-2-(propan-2-yl)-1,2,3,4-tetrahydroisoquinolin-7-yl]-7-(8-methyl-2,3-dihydro-1H-pyrido[2,3-b][1,4]oxazin-7-yl)quinazoline-2,5-diamine] it was 0.117 nM; in that of `CC(=O)N1CCCC1c1ccc(Nc2ncc3c(N)c(F)c(-c4cnc5c(c4C)NCCO5)cc3n2)cc1` (single isomer, unassigned) [Compound 2-28, (R or S)-1-[2-(4-{[5-amino-6-fluoro-7-(8-methyl-2,3-dihydro-1H-pyrido[2,3-b][1,4]oxazin-7-yl)quinazolin-2-yl]amino}phenyl)pyrrolidin-1-yl]ethan-1-one], 0.149 nM; in that of `Cc1ccncc1-c1cc2nc(Nc3ccc(CS(C)(=O)=O)cc3)ncc2c(N)c1F` [Compound 2-44, 6-fluoro-7-(4-methylpyridin-3-yl)-N~2~- {4-[(methylsulfonyl)methyl]phenyl}quinazoline-2,5-diamine], 0.194 nM.
As for `COc1cc(C2CC2)ccc1Nc1ncc2c(N)c(F)c(-c3cnc4c(c3C)NCCO4)cc2n1` [Compound 2-176, N~2~-(4-cyclopropyl-2-methoxyphenyl)-6-fluoro-7-(8-methyl-2,3-dihydro-1H-pyrido[2,3-b][1,4]oxazin-7-yl)quinazoline-2,5-diamine], the figure is 17.2 nM; as for `Cc1c(-c2c(F)c(N)c3cnc(Nc4ccc5c(c4)CN(C)CC5)nc3c2Cl)cnc2c1NCCO2` (single isomer, unassigned) [Compound 2-179, (+ or −)-8-chloro-6-fluoro-7-(8-methyl-2,3-dihydro-1H-pyrido[2,3-b][1,4]oxazin-7-yl)-N~2~- (2-methyl-1,2,3,4-tetrahydroisoquinolin-7-yl)quinazoline-2,5-diamine], 2.93 nM.
`Cc1c(-c2c(F)c(N)c3cnc(Nc4ccc(CS(=O)(=O)C5CC5)cc4)nc3c2Cl)cnc2c1NCCO2` [Compound 2-137, 8-chloro-N2-(4-((cyclopropylsulfonyl)methyl)phenyl)-6-fluoro-7-(8-methyl-2,3-dihydro-1H-pyrido[2,3-b][1,4]oxazin-7-yl)quinazoline-2,5-diamine] yielded an IC50 of 100 nM.
On to `COc1cc2c(cc1Nc1ncc3c(N)cc(-c4c(C)cccc4F)cc3n1)CN(C)CC2` [Compound 2-38, 7-(2-fluoro-6-methylphenyl)-N^2-(6-methoxy-2-methyl-1,2,3,4-tetrahydroisoquinolin-7-yl)quinazoline-2,5-diamine], for which the IC50 came to 35.1 nM. Against the preceding compound, the IC50 is about 2.8-fold lower.
With `COc1cc2c(cc1Nc1ncc3ccc(Nc4cccc(CO)c4)cc3n1)CN(C)CC2` [Compound 3-31, [3-({2-[(6-methoxy-2-methyl-1,2,3,4-tetrahydroisoquinolin-7-yl)amino]quinazolin-7-yl}-amino)phenyl]methanol], the midpoint of inhibition, the IC50, lay at 29.4 nM. This IC50 and that of the compound before are within 1.5-fold of each other.
`CCS(=O)(=O)Cc1ccc(Nc2ncc3c(N)c(F)c(-c4cnc5c(c4C)NCCO5)c(Cl)c3n2)cc1` [Compound 2-140, 8-chloro-N~2~-{4-[(ethylsulfonyl)methyl]phenyl}-6-fluoro-7-(8-methyl-2,3-dihydro-1H-pyrido[2,3-b][1,4]oxazin-7-yl)quinazoline-2,5-diamine] registered an IC50 of 0.121 nM.
On to `COc1cc2c(cc1Nc1ncc3c(N)c(F)c(-c4cnc5c(c4C)NCCO5)c(Cl)c3n1)CN(C)CC21CC1` [Compound 2-169, 8-chloro-6-fluoro-N~2~- (6′-methoxy-2′-methyl-2′,3′-dihydro-1′H-spiro[cyclopropane-1,4′-isoquinolin]-7′-yl)-7-(8-methyl-2,3-dihydro-1H-pyrido[2,3-b][1,4]oxazin-7-yl)quinazoline-2,5-diamine], for which the IC50 came to 4.97 nM. This IC50 is about 41-fold higher than that of the compound before.
As for `CCS(=O)(=O)Cc1ccc(Nc2ncc3c(N)c(F)c(-c4cnc5c(c4C)NCC(C)O5)cc3n2)c(F)c1` (single isomer, unassigned) [Compound 2-129, (R or S)-7-(3,8-dimethyl-2,3-dihydro-1H-pyrido[2,3-b][1,4]oxazin-7-yl)-N2-(4-((ethylsulfonyl)methyl)-2-fluorophenyl)-6-fluoroquinazoline-2,5-diamine], the figure is 0.454 nM; as for `COc1nc(C2(C#N)CC2)ccc1Nc1ncc2c(N)c(F)c(-c3cnc4c(c3C)NCCO4)cc2n1` [Compound 2-68, 1-(5-{[5-amino-6-fluoro-7-(8-methyl-2,3-dihydro-1H-pyrido[2,3-b][1,4]oxazin-7-yl)quinazolin-2-yl]amino}-6-methoxypyridin-2-yl)cyclopropane-1-carbonitrile], 14.3 nM.
Turning to `COc1cc2c(cc1Nc1ncc3ccc(-c4ccncc4)cc3n1)CNCC2` [Compound 1-46, N-(6-methoxy-1,2,3,4-tetrahydroisoquinolin-7-yl)-7-(pyridin-4-yl)quinazolin-2-amine], the IC50 turned out to be 59.4 nM.
The compound `CC(=O)Nc1ccc(Nc2ncc3c(N)c(F)c(-c4cnc5c(c4C)NCCO5)cc3n2)cc1` [Compound 2-15] gave an IC50 of 0.0731 nM. This IC50 is about 810-fold lower than that of the compound before.
`Cc1c(-c2cc3nc(Nc4ccc5c(c4)CN(C)CC54CC4)ncc3c(N)c2F)cnc2c1NCCO2` [Compound 2-73, 6-fluoro-7-(8-methyl-2,3-dihydro-1H-pyrido[2,3-b][1,4]oxazin-7-yl)-N~2~- (2′-methyl-2′,3′-dihydro-1′H-spiro[cyclopropane-1,4′-isoquinolin]-7′-yl)quinazoline-2,5-diamine] had an IC50 of 0.0508 nM.
Take `COc1ccc(-c2ccc3cnc(Nc4cc5c(cc4OC)CCNC5)nc3c2)cn1` [Compound 1-39, 7-(6-methoxypyridin-3-yl)-N-(6-methoxy-1,2,3,4-tetrahydroisoquinolin-7-yl)quinazolin-2-amine]: the IC50 is 34.8 nM.
In turn, `COc1cc(C(C)S(C)(=O)=O)ccc1Nc1ncc2c(N)c(F)c(-c3cnc4c(c3C)NCCO4)cc2n1` (single isomer, unassigned) [Compound 2-55, (R or S)-6-fluoro-N˜2˜-{2-methoxy-4-[1-(methylsulfonyl)ethyl]phenyl}-7-(8-methyl-2,3-dihydro-1H-pyrido[2,3-b][1,4]oxazin-7-yl)quinazoline-2,5-diamine] returned an IC50 of 1.62 nM.
In the case of `Cc1c(-c2cc3nc(Nc4ccc(CS(C)(=O)=O)cc4F)ncc3c(N)c2F)cnc2c1NCCO2` [Compound 2-155, 6-fluoro-N~2~-{2-fluoro-4-[(methylsulfonyl)methyl]phenyl}-7-(8-methyl-2,3-dihydro-1H-pyrido[2,3-b][1,4]oxazin-7-yl)quinazoline-2,5-diamine] it was 0.0647 nM; in that of `Cc1c(-c2cc3nc(Nc4ccc5c(c4)CN(C)CC5)ncc3c(N)c2F)cnc2c1NCC(C)(C)O2` [Compound 2-166, 6-fluoro-N~2~-(2-methyl-1,2,3,4-tetrahydroisoquinolin-7-yl)-7-(3,3,8-trimethyl-2,3-dihydro-1H-pyrido[2,3-b][1,4]oxazin-7-yl)quinazoline-2,5-diamine], 0.0589 nM.
